According to USRE48461E1, “Modulation of androgen receptor expression” (Ionis Pharmaceuticals, Inc., priority 2012, dated 2021):

Columns and labels:
Format in all cases: cell-based, human
AR mRNA = AR mRNA levels in LMR20 cells (with/without DHT or R1881); conditions: with or without DHT/R1881
Method: LMR20 cells were plated at 1,500 cells per well in phenol red-free medium with CSS.

LNCaP cells = assay: LNCaP cell proliferation, ASO in combination with MDV3100 (Example 20); conditions: for Proliferation (% untreated control) in LNCaP without MDV-3100: 5 days
Method: (§1) LNCaP cells were plated at 1,000 cells per well. […] ISIS 549148 was included as a negative control. […] After a treatment period of 5 days, the proliferative capacity of the cancer cells was measured with CellTiter 96® AQueous One or CellTiter-Glo® Solution Cell Proliferation kit (Promega), following the manufacturer's instructions. […]

C4-2B cells = assay: C4-2B cell proliferation, ASO in combination with MDV3100 (Example 21); conditions: for Proliferation (% untreated control) in C4-2B without MDV-3100: 5 days
Method: as §1, with “C4-2B” for “LNCaP”, “One” for “One or CellTiter-Glo®”

22RV1 cells = assay: 22RV1 cell proliferation with/without DHT (MTT); conditions: 5 days; for Percent inhibition of 22RV1 cell proliferation: RNAiMAX
Method: 22RV1cells were plated at 1,500 cells per well. […] Separate sets of cells, also treated with each of the antisense oligonucleotides, were treated with DHT added on day 1 at a final concentration of 1 nM. After a treatment period of 5 days, the proliferative ability of the cancer cells was measured using the standard MTT assay. Results are presented in Table 69 as percent inhibition of proliferation, relative to non-treated cells.

TMPRSS2 mRNA = assay: Time-course TMPRSS2 expression in C4-2B cells
Method: C4-2B cells were plated at 1,000 cells per well in complete medium. […] ISIS 549148 was included as a negative control. […] After a treatment period of 8 hours, 24 hours, and 48 hours, AR expression was measured with primer probe set hAR-LTS00943. Results are presented in Tables 70-72 as percent expression of AR, relative to non-treated cells.
Expression analysis of prostate-specific antigen (PSA) and TMPRSS2 were also analyzed. Results are presented in Tables 73-75 as percent inhibition of PSA expression and Tables 76-78 as percent inhibition of TMPRSS2 expression, relative to non-treated cells.

VCaP cells = assay: VCaP apoptosis (Caspase-Glo 3/7); conditions: complete medium, 72 hours; for Apoptosis (% untreated control): VCaP cells
Method: After a treatment period of 72 hours in complete medium, apoptosis of the cancer cells was measured with Caspase-Glo 3/7 assay (Promega). Results are presented in Tables 117 and 118 as percent apoptosis of the cells, relative to non-treated cells.

[1] = ASO dose 0.04 μM + 0.08 μM MDV-3100
[2] = ASO dose 0.04 μM + 0.4 μM MDV-3100
[3] = ASO dose 0.04 μM + 2.0 μM MDV-3100
[4] = ASO dose 0.04 μM + […] MDV-3100
[5] = ASO dose 0.08 μM + 0.08 μM MDV-3100
[6] = ASO dose 0.08 μM + 0.4 μM MDV-3100
[7] = ASO dose 0.08 μM + 2.0 μM MDV-3100
[8] = ASO dose 0.08 μM + […] MDV-3100
[9] = ASO dose 0.2 μM + 0.08 μM MDV-3100
[10] = ASO dose 0.2 μM + 0.4 μM MDV-3100
[11] = ASO dose 0.2 μM + 2.0 μM MDV-3100
[12] = ASO dose 1.0 μM + 0.08 μM MDV-3100
[13] = ASO dose 1.0 μM + 0.4 μM MDV-3100
[14] = ASO dose 1.0 μM + 2.0 μM MDV-3100

TGATTTAATGGTTGCA [ISIS 569236] (cEt/MOE gapmer chemistry, further chemistry not given here) [targets intron 1]
AR mRNA levels in LMR20 cells (AR mRNA): reduced AR mRNA levels in LMR20 cells, treated with or without either AR agonist, in a dose dependent manner relative to the baseline
Proliferation (% untreated control) in LNCaP with 0.08 μM MDV-3100 (LNCaP cells; [1]): 74 % untreated control
Proliferation (% untreated control) in LNCaP with 0.4 μM MDV-3100 (LNCaP cells; [2]): 48 % untreated control
Proliferation (% untreated control) in LNCaP with 2.0 μM MDV-3100 (LNCaP cells; [3]): 41 % untreated control
Proliferation (% untreated control) in LNCaP with […] MDV-3100 (LNCaP cells; [4]): 92 % untreated control
Proliferation (% untreated control) in LNCaP without MDV-3100 (LNCaP cells; ASO dose 0.04 μM): 91 % untreated control
Proliferation (% untreated control) in LNCaP with 0.08 μM MDV-3100 (LNCaP cells; [5]): 98 % untreated control
Proliferation (% untreated control) in LNCaP with 0.4 μM MDV-3100 (LNCaP cells; [6]): 61 % untreated control
Proliferation (% untreated control) in LNCaP with 2.0 μM MDV-3100 (LNCaP cells; [7]): 44 % untreated control
Proliferation (% untreated control) in LNCaP with […] MDV-3100 (LNCaP cells; [8]): 104 % untreated control
Proliferation (% untreated control) in LNCaP without MDV-3100 (LNCaP cells; ASO dose 0.08 μM): 106 % untreated control
Proliferation (% untreated control) in LNCaP with 0.08 μM MDV-3100 (LNCaP cells; [9]): 51 % untreated control
Proliferation (% untreated control) in LNCaP with 0.4 μM MDV-3100 (LNCaP cells; [10]): 41 % untreated control
Proliferation (% untreated control) in LNCaP with 2.0 μM MDV-3100 (LNCaP cells; [11]): 35 % untreated control
Proliferation (% untreated control) in LNCaP with […] MDV-3100 (LNCaP cells; ASO dose 0.2 μM + […] MDV-3100): 58 % untreated control
Proliferation (% untreated control) in LNCaP without MDV-3100 (LNCaP cells; ASO dose 0.2 μM): 60 % untreated control
Proliferation (% untreated control) in LNCaP with 0.08 μM MDV-3100 (LNCaP cells; [12]): 31 % untreated control
Proliferation (% untreated control) in LNCaP with 0.4 μM MDV-3100 (LNCaP cells; [13]): 27 % untreated control
Proliferation (% untreated control) in LNCaP with 2.0 μM MDV-3100 (LNCaP cells; [14]): 23 % untreated control
Proliferation (% untreated control) in LNCaP with […] MDV-3100 (LNCaP cells; ASO dose 1.0 μM + […] MDV-3100): 29 % untreated control
Proliferation (% untreated control) in LNCaP without MDV-3100 (LNCaP cells; ASO dose 1.0 μM): 35 % untreated control
synergy with MDV3100 (LNCaP cells; LNCaP cells): synergistic with MDV3100
cell proliferation inhibited, combination (LNCaP cells; LNCaP cells, 0.04 μM ASO in combination with 0.08 μM MDV3100): 26%
inhibited cell proliferation, ASO alone (LNCaP cells; LNCaP cells, ASO alone at 0.04 μM): 9%
Proliferation (% untreated control) in C4-2B with 0.08 μM MDV-3100 (C4-2B cells; [1]): 79 % untreated control
Proliferation (% untreated control) in C4-2B with 0.4 μM MDV-3100 (C4-2B cells; [2]): 63 % untreated control
Proliferation (% untreated control) in C4-2B with 2.0 μM MDV-3100 (C4-2B cells; [3]): 45 % untreated control
Proliferation (% untreated control) in C4-2B with […] MDV-3100 (C4-2B cells; [4]): 74 % untreated control
Proliferation (% untreated control) in C4-2B without MDV-3100 (C4-2B cells; ASO dose 0.04 μM): 72 % untreated control
Proliferation (% untreated control) in C4-2B with 0.08 μM MDV-3100 (C4-2B cells; [5]): 89 % untreated control
Proliferation (% untreated control) in C4-2B with 0.4 μM MDV-3100 (C4-2B cells; [6]): 90 % untreated control
Proliferation (% untreated control) in C4-2B with 2.0 μM MDV-3100 (C4-2B cells; [7]): 44 % untreated control
Proliferation (% untreated control) in C4-2B with […] MDV-3100 (C4-2B cells; [8]): 107 % untreated control
Proliferation (% untreated control) in C4-2B without MDV-3100 (C4-2B cells; ASO dose 0.08 μM): 100 % untreated control
Proliferation (% untreated control) in C4-2B with 0.08 μM MDV-3100 (C4-2B cells; [9]): 51 % untreated control
Proliferation (% untreated control) in C4-2B with 0.4 μM MDV-3100 (C4-2B cells; [10]): 48 % untreated control
Proliferation (% untreated control) in C4-2B with 2.0 μM MDV-3100 (C4-2B cells; [11]): 48 % untreated control
Proliferation (% untreated control) in C4-2B with […] MDV-3100 (C4-2B cells; ASO dose 0.2 μM + […] MDV-3100): 65 % untreated control
Proliferation (% untreated control) in C4-2B without MDV-3100 (C4-2B cells; ASO dose 0.2 μM): 63 % untreated control
Proliferation (% untreated control) in C4-2B with 0.08 μM MDV-3100 (C4-2B cells; [12]): 43 % untreated control
Proliferation (% untreated control) in C4-2B with 0.4 μM MDV-3100 (C4-2B cells; [13]): 39 % untreated control
Proliferation (% untreated control) in C4-2B with 2.0 μM MDV-3100 (C4-2B cells; [14]): 46 % untreated control
Proliferation (% untreated control) in C4-2B with […] MDV-3100 (C4-2B cells; ASO dose 1.0 μM + […] MDV-3100): 55 % untreated control
Proliferation (% untreated control) in C4-2B without MDV-3100 (C4-2B cells; ASO dose 1.0 μM): 51 % untreated control
synergy with MDV3100 (C4-2B cells; C4-2B cells): synergistic with MDV3100
cell proliferation inhibited, combination (C4-2B cells; C4-2B cells, 0.2 μM ASO in combination with 0.08 μM MDV3100): 52%
inhibited cell proliferation, ASO alone (C4-2B cells; C4-2B cells, ASO alone at 0.2 μM): 37%
Percent inhibition of 22RV1 cell proliferation (22RV1 cells; +DHT (1 nM), ASO 1.34 nM): 0%
Percent inhibition of 22RV1 cell proliferation (22RV1 cells; +DHT (1 nM), ASO 4.0 nM): 6%
Percent inhibition of 22RV1 cell proliferation (22RV1 cells; +DHT (1 nM), ASO 13.4 nM): 32%
Percent inhibition of 22RV1 cell proliferation (22RV1 cells; +DHT (1 nM), ASO 40.0 nM): 56%
22RV1 cell proliferation (22RV1 cells; with or without 1 nM DHT): significantly inhibited prostate cancer cell proliferation even in the presence of AR activator, DHT, compared to the control
Percent inhibition of 22RV1 cell proliferation (22RV1 cells; −DHT, ASO 1.34 nM): 0%
Percent inhibition of 22RV1 cell proliferation (22RV1 cells; −DHT, ASO 4.0 nM): 18%
Percent inhibition of 22RV1 cell proliferation (22RV1 cells; −DHT, ASO 13.4 nM): 47%
Percent inhibition of 22RV1 cell proliferation (22RV1 cells; −DHT, ASO 40.0 nM): 64%
Percent inhibition of TMPRSS2 expression compared to the control group in 8 hours (TMPRSS2 mRNA; 0.04 μM): 0%
Percent inhibition of TMPRSS2 expression compared to the control group in 24 hours (TMPRSS2 mRNA; 0.04 μM): 10%
Percent inhibition of TMPRSS2 expression compared to the control group in 48 hours (TMPRSS2 mRNA; 0.04 μM): 22%
Percent inhibition of TMPRSS2 expression compared to the control group in 8 hours (TMPRSS2 mRNA; 0.2 μM): 0%
Percent inhibition of TMPRSS2 expression compared to the control group in 24 hours (TMPRSS2 mRNA; 0.2 μM): 32%
Percent inhibition of TMPRSS2 expression compared to the control group in 48 hours (TMPRSS2 mRNA; 0.2 μM): 57%
Percent inhibition of TMPRSS2 expression compared to the control group in 8 hours (TMPRSS2 mRNA; 1 μM): 0%
Percent inhibition of TMPRSS2 expression compared to the control group in 24 hours (TMPRSS2 mRNA; 1 μM): 57%
Percent inhibition of TMPRSS2 expression compared to the control group in 48 hours (TMPRSS2 mRNA; 1 μM): 70%
Percent inhibition of TMPRSS2 expression compared to the control group in 8 hours (TMPRSS2 mRNA; 5.0 μM): 0%
Percent inhibition of TMPRSS2 expression compared to the control group in 24 hours (TMPRSS2 mRNA; 5.0 μM): 66%
Percent inhibition of TMPRSS2 expression compared to the control group in 48 hours (TMPRSS2 mRNA; 5.0 μM): 75%
TMPRSS2 expression (TMPRSS2 mRNA; time course): reduced PSA and TMPRSS2 expression in the cells relative to the control set at the 24 hr and 48 hr time points
Apoptosis (% untreated control) (VCaP cells; 1.34 nM): 176 % untreated control
Apoptosis (% untreated control) (VCaP cells; 4.0 nM): 293 % untreated control
Apoptosis (% untreated control) (VCaP cells; 13.4 nM): 402 % untreated control
Apoptosis (% untreated control) (VCaP cells; 40 nM): 581 % untreated control
apoptosis of VCaP cells (VCaP cells): increased apoptosis of the cells in a dose dependent compared to the control
